Experimental data as given in US11998523B2, “Ascorbic acid and quinone compounds for treating Chagas disease” (IC-MedTech Corp., priority 2016, dated 2024).
Read-outs that look alike come from different tables or passages of the source.

Experiments:
Format in all cases: cell-based
[1] = system: parasitic forms of Trypanosoma cruzi; experiment: Total ROS production (H2DCFDA labeling); conditions: H2O2 20.0 μM
Experimental: FIGS. 2A, 2B, and 2C show the effects of VC and VK3 on the total reactive oxygen species (ROS) production in parasitic forms of Trypanosoma cruzi, where the parasites were treated with VC and VK3, alone and combined, for 24 hrs using H2DCFDA labeling; and where epimastigote forms (FIG. 2A) were treated with 0.61 mM VC and 1.90 μM VK3, alone and combined; trypomastigote forms (FIG. 2B) were treated with 0.20 mM VC and 0.35 μM VK3, alone and combined; and amastigote forms (FIG. 2C) were treated with 0.18 mM VC and 0.30 μM VK3, alone and combined. H2O2 was used as a positive control. Total ROS were measured as an increase in fluorescence that is caused by the conversion of nonfluorescent dye to fluorescent DCF. The results are expressed as the mean fluorescence (in arbitrary units [A.U.]±SE) of at least three independent experiments. The symbol * indicates significant differences compared with the control group (untreated cells; p≤0.05). The production of total reactive oxygen species (total ROS) was evaluated in parasitic forms after exposure to VC and VK3 using the probe H2DCFDA. Epimastigote forms (1×10^6 parasites/mL) were evaluated after exposure to 0.61 mM VC and 1.90 μM VK3, alone and in combination, for 24 hrs at 28° C. Trypomastigote forms (1×10^7 parasites/mL) were evaluated after exposure to 0.20 mM VC and 0.35 μM VK3, alone and in combination, for 24 hrs at 37° C. in a 5% CO2 atmosphere. Amastigote forms (1×10^7 parasites/mL) were evaluated after exposure to 0.18 mM VC and 0.30 μM VK3, alone and in combination, for 24 hrs at 37° C. in a 5% CO2 atmosphere. Hydrogen peroxide (H2O2; 20.0 μM) was used as a positive control. Afterward, the parasites were centrifuged, washed, and resuspended in PBS. Parasites were loaded with 10.0 μM of the permeant probe H2DCFDA in the dark for 45 min.

[2] = system: Epimastigote forms of T. cruzi (Y strain); experiment: Trypanocidal effect on epimastigote forms (counting in Neubauer hemocytometer, Combination Index method); conditions: Trypanosoma cruzi
Experimental: (§1) All of the experiments were performed using the Y strain of T. cruzi. Pereira et al., Folia Clin. Biol. 1953, 20, 191-208. Epimastigote forms were axenically maintained at 28° C. with weekly transfers in liver infusion tryptose (LIT) medium supplemented with 10% heat-inactivated FBS, pH 7.4. Camargo, Rev. Inst. Med. Trop. São Paulo. 1964, 6, 93-100. Trypomastigote and amastigote forms were obtained from the previously infected monolayers of LLCMK2 cells (epithelial cells of monkey kidney [Macaca mulatta]; CCL-7; American Type Culture Collection, Rockville, MD, USA) in DMEM supplemented with 2 mM L-glutamine and 10% FBS, buffered with sodium bicarbonate in a 5% CO2 air mixture at 37° C. […] The number of epimastigote forms was determined by counting in a Neubauer hemocytometer after 96 hrs. The data were calculated and mathematically expressed as a Combination Index: CI=(IC50 VK3 combined/IC50 VK3 alone)+(IC50 VC combined/IC50 VC alone) for epimastigotes and amastigotes and CI=(EC50 VK3 combined/EC50 VK3 alone)+(EC50 VC combined/EC50 VC alone) for trypomastigotes. […] The data were also graphically expressed as isobolograms by plotting concentrations of vitamins that alone or in combination induced activity against 50% of the forms of the parasite.

[3] = system: Trypomastigote forms of T. cruzi (Y strain); experiment: Trypanocidal effect on trypomastigote forms (viability by mobility, Pizzi-Brener method, Combination Index method); conditions: Trypanosoma cruzi
Experimental: as §1, with “After incubation, the viability” for “The number”, “the parasites” for “epimastigote forms”, “examining mobility under” for “counting in”, “light microscope (Olympus CX31) using the Pizzi-Brener method. […]” for “Neubauer hemocytometer after 96 hrs.”

[4] = system: intracellular amastigote forms of T. cruzi (Y strain) in LLCMK2 cells; experiment: Activity against intracellular amastigote forms in LLCMK2 cells (survival index, Combination Index method); conditions: Trypanosoma cruzi
Experimental: All of the experiments were performed using the Y strain of T. cruzi. Pereira et al., Folia Clin. Biol. 1953, 20, 191-208. Epimastigote forms were axenically maintained at 28° C. with weekly transfers in liver infusion tryptose (LIT) medium supplemented with 10% heat-inactivated FBS, pH 7.4. Camargo, Rev. Inst. Med. Trop. São Paulo. 1964, 6, 93-100. Trypomastigote and amastigote forms were obtained from the previously infected monolayers of LLCMK2 cells (epithelial cells of monkey kidney [Macaca mulatta]; CCL-7; American Type Culture Collection, Rockville, MD, USA) in DMEM supplemented with 2 mM L-glutamine and 10% FBS, buffered with sodium bicarbonate in a 5% CO2 air mixture at 37° C. […] The number of infected cells and amastigotes was determined by randomly counting 200 cells. The results were calculated as the survival index, which was obtained by multiplying the percentage of infected cells by the number of amastigotes per infected LLCMK2 cell and then determining the percentage of inhibition. […] The data were calculated and mathematically expressed as a Combination Index: CI=(IC50 VK3 combined/IC50 VK3 alone)+(IC50 VC combined/IC50 VC alone) for epimastigotes and amastigotes and CI=(EC50 VK3 combined/EC50 VK3 alone)+(EC50 VC combined/EC50 VC alone) for trypomastigotes. […]

OO [H2O2, Hydrogen peroxide]
increase in ROS production (positive control) ([1]; amastigotes): 60%
increase in ROS production (positive control) ([1]; epimastigotes): 69%
increase in ROS production (positive control) ([1]; trypomastigotes): 77%

CC1=CC(=O)c2ccccc2C1=O [VK3, 2-methyl-1,4-naphthalenedione]
IC50 ([2]; .61 mM VC, read-out: VK3 concentration in the combination with synergistic effect on 50% of the parasites (IC50 VK3 combined)): 1.9 µM
EC50 ([3]; combined with 0.20 mM VC, read-out: VK3 concentration in the combination with synergistic effect on 50% of the parasites (EC50 VK3 combined)): 0.35 µM
IC50 ([4]; LLC-MK2, combined with 0.18 mM VC, read-out: VK3 concentration in the combination with synergistic effect on 50% of the parasites (IC50 VK3 combined)): 0.3 µM

O=C1O[C@H]([C@@H](O)CO)C(O)=C1O [VC, L-ascorbic acid]
IC50 ([2]; combined with 1.90 μM VK3, read-out: VC concentration in the combination with synergistic effect on 50% of the parasites (IC50 VC combined)): 610 µM
EC50 ([3]; combined with 0.35 μM VK3, read-out: VC concentration in the combination with synergistic effect on 50% of the parasites (EC50 VC combined)): 200 µM
IC50 ([4]; LLC-MK2, combined with 0.30 μM VK3, read-out: VC concentration in the combination with synergistic effect on 50% of the parasites (IC50 VC combined)): 180 µM
